Experimental data reported in paper PMC6696947 (European journal of pharmacology, 2019).
“Also recorded” adds a separate entry of the source.

What was measured:
[1] = system: rats; settings: positive control; ref Carlezon et al., 2006; Curzon et al., 2009; cited from earlier work
[2] = system: rats; assay: Self-administration model; format: in vivo, male Sprague-Dawley rats; settings: n=8
[3] = system: rats; assay: Locomotor open field test; settings: JT09 20 mg/kg p.o.; morphine 10 mg/kg i.p.
[4] = system: rats; assay: Hot plate model; format: in vivo, male Sprague-Dawley rats; settings: JT07/JT09 20 mg/kg p.o.; morphine 10 mg/kg i.p.; %MPE, 53.0 °C, cut-off 30 s
[5] = system: rats; assay: Acetic acid-induced writhing model; format: in vivo, male Sprague-Dawley rats; settings: test compound 20 mg/kg p.o.; morphine 10 mg/kg i.p.; Student's t-test, P<0.05
[6] = no reference given, cited from earlier work
[7] = no reference given, cited from earlier work; remark: listed apart in the source
[8] = no reference given; cited from earlier work

Compound: COC(=O)[C@@H]1C[C@H](OC(C)=O)C(=O)[C@H]2[C@@]1(C)CC[C@H]1C(=O)O[C@H](c3ccoc3)C[C@]21C [Salvinorin A]
- depressant-like effects (in words) [1]: known depressant-like effects at high dose levels, such as dysphoria

Compound: COC(=O)[C@H]1[C@@H](OC(=O)c2ccccc2)C[C@@H]2CC[C@H]1N2C [cocaine]
- number of cocaine infusions / active lever presses over 7 days ([2]; cocaine 50ug/50ul bolus after JT09, nose poke, F(6,42)=4.6, P<0.0012): number of cocaine infusions increased over the 7 days; also recorded: number of cocaine active lever presses increased over the 7 days; also recorded: expected increase in the number of lever presses over the seven-day period
- cocaine infusions / active lever presses on days 6 and 7 ([2]; cocaine after JT09, Dunnett post hoc, P<0.05): significantly more infusion on days 6 and 7; also recorded: significantly more active lever presses on days 6 and 7

Compound: CN1CC[C@]23c4c5ccc(O)c4O[C@H]2[C@@H](O)C=C[C@H]3[C@H]1C5 [morphine]
- sedation (in words) [3]: highly sedative
- analgesic activity in hot plate model [4]: potent analgesic
- potency/efficacy versus morphine in writhing (peripheral pain) [5]: comparable analgesic activity

Compound: D-Phe-D-Phe-D-Nle-D-Arg-NH2 [CR665]
- peripheral to central selectivity in analgesic models (in words) ([6]; i.v., background statement in abstract): high peripheral to central selectivity
- peripheral-selectivity ([6]; peripheral versus central): 548 fold
- oral activity (in words) ([7]; background statement in abstract): inactive when administered orally
- oral bioavailability (in words) [7]: does not have significant oral bioavailability
- efficacy in visceral and neuropathic pain (in words) [8]: has demonstrated efficacy in the treatment of visceral and neuropathic pain without the negative side-effects of centrally acting KOAs
